What all share (assay): relative viability (nuclei count vs DMSO), 5 days (fraction); higher = more cells survive
Compound in experiment [1]: Cn1cc(-c2cnc3ccc4ccc(CS(=O)(=O)NCc5ccccn5)cc4c(=O)c3c2)cn1 [MK-8033] + Cc1cc(Nc2cc(N3CCN(C)CC3)nc(Sc3ccc(NC(=O)C4CC4)cc3)n2)n[nH]1 [Tozasertib] (partner 0.1 µM)
An outline of the steps: (§1)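 Lung cancer cell lines in 1536-well plates were dosed by pin tool the day after seeding, either with one drug alone or with a fixed anchor-drug dose plus five library-drug doses (not always all listed) in √10 steps. After 5 days, cells were fixed and their nuclei stained in one step (final 0.05% Triton X-100, 1% formaldehyde, 1 ug/ml Hoechst), then counted on 4× images. Relative viability is the nuclei count in treated wells divided by that in vehicle wells. Values are medians of duplicate plates.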

Compound in experiment [2]: Cn1cc(-c2cnc3ccc4ccc(CS(=O)(=O)NCc5ccccn5)cc4c(=O)c3c2)cn1 [MK-8033] + Cc1nc(NC(=O)N2CCC[C@H]2C(N)=O)sc1-c1ccnc(C(C)(C)C(F)(F)F)c1 [Alpelisib] (partner 2 µM)
The procedure, abridged:
as §1

Compound in experiment [3]: CCc1c2c(nc3ccc(OC(=O)N4CCC(N5CCCCC5)CC4)cc13)-c1cc3c(c(=O)n1C2)COC(=O)[C@]3(O)CC [Irinotecan] + C[C@]1(O)C[C@@H](c2nc(-c3ccc4ccc(-c5ccccc5)nc4c3)c3c(N)nccn32)C1 [Linsitinib] (partner 1 µM)
An outline of the steps:
as §1

Compound in experiment [4]: CCc1c2c(nc3ccc(OC(=O)N4CCC(N5CCCCC5)CC4)cc13)-c1cc3c(c(=O)n1C2)COC(=O)[C@]3(O)CC [Irinotecan] + COc1cc2c(Oc3ccc(NC(=O)C4(C(=O)Nc5ccc(F)cc5)CC4)cc3F)ccnc2cc1OCCCN1CCOCC1 [Foretinib] (partner 0.25 µM)
The procedure, abridged:
as §1

Data on 1 cell line can be found in the supplement of paper PMC10307832.

UMC-11: the relative viability was 0.201 in experiment [1] (first compound 0.02 µM); 0.193 in experiment [1] (first compound 0.2 µM); 0.205 in experiment [1] (first compound 0.6325 µM); 0.205 in experiment [1] (first compound 2 µM); 0.988 in experiment [2] (first compound 0.02 µM); 0.979 in experiment [2] (first compound 0.06325 µM). Also, the relative viability in experiment [2] (first compound 0.2 µM) worked out at 0.958; in experiment [2] (first compound 0.6325 µM), 0.961; in experiment [2] (first compound 2 µM), 0.986; in experiment [3] (first compound 0.6325 µM), 0.724; in experiment [3] (first compound 2 µM), 0.49; in experiment [3] (first compound 6.325 µM), 0.281. Besides, the relative viability worked out at 0.22 in experiment [3] (first compound 20 µM); 0.704 in experiment [4] (first compound 0.6325 µM); 0.518 in experiment [4] (first compound 2 µM); 0.337 in experiment [4] (first compound 6.325 µM); 0.237 in experiment [4] (first compound 20 µM).
